Assay [1] deals with T1, Epidermal growth factor receptor (Homo sapiens, UniProt P00533).
The target of assay [2] is T1, Epidermal growth factor receptor. Put plainly: Inhibition of EGFR at >100 uM.
The subject of another assay is KB. The experiment in a line: Antiproliferative activity against human KB cells expressing EGFR and SRC by MTT assay. It is filed as functional, cell-based.
Another assay relates to A498. The experiment in a line: Antiproliferative activity against human A498 cells expressing EGFR and SRC by MTT assay. It is filed as functional, cell-based.
Assay [3] has as its target Proto-oncogene tyrosine-protein kinase Src (Homo sapiens, UniProt P12931). Put plainly: Inhibition of SRC.

Molecules are shown by their SMILES. Active and inactive are the calls of the source. No cut-off for these calls is given here.

Sequence of Proto-oncogene tyrosine-protein kinase Src (P12931 2-536 limits assumed): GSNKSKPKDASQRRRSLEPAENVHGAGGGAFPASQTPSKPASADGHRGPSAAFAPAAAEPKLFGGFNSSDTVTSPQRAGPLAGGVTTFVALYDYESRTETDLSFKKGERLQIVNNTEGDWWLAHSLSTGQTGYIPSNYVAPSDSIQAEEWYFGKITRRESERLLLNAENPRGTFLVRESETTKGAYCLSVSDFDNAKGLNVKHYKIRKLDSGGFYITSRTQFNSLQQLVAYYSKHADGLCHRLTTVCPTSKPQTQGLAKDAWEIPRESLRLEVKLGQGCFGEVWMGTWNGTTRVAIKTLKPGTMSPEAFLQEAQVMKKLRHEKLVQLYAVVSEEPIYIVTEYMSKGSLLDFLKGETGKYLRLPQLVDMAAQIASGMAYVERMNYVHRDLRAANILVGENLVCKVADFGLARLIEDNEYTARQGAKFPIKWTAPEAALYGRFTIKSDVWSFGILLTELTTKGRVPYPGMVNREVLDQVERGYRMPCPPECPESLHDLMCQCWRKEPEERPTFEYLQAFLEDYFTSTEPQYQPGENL
T1 sequence (P00533 whole entry): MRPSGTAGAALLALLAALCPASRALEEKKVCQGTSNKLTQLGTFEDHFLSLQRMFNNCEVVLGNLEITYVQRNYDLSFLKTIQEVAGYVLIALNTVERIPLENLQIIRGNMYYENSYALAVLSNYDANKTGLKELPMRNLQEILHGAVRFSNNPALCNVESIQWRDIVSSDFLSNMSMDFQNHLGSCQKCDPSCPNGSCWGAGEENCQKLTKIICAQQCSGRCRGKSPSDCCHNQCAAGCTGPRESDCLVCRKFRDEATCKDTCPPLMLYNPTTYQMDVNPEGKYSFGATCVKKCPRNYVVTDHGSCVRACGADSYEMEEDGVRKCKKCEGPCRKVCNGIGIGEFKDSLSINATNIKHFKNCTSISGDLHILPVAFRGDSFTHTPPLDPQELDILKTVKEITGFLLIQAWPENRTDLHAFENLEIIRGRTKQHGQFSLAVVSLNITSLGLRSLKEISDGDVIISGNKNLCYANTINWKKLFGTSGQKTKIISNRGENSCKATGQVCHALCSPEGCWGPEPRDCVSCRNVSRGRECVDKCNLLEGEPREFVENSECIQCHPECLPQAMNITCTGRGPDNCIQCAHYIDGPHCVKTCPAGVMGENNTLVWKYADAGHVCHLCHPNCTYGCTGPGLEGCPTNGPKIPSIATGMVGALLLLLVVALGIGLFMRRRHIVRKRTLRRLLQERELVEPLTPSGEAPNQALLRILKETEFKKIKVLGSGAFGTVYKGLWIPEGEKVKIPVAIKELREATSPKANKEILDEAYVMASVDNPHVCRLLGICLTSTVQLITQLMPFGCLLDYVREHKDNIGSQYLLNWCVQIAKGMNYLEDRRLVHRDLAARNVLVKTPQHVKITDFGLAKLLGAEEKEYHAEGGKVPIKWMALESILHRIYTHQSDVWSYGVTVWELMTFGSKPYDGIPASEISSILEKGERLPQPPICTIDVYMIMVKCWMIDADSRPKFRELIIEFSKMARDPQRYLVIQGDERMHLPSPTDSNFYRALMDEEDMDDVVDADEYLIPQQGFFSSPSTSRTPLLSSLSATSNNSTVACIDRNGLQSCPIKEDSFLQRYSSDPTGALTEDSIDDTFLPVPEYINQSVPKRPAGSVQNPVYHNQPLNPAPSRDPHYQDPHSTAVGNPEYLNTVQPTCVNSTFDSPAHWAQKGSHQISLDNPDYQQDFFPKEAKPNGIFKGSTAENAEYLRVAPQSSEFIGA

In the case of `O=c1oc2cc3ncnc(Nc4ccc(OCc5ccccn5)cc4)c3cc2n1CCCN1CCOCC1`, the IC50 in assay [1] was found to be 1.7 µM.
In the case of `CN1CCN(c2ncnc3cc4oc(=O)n(CCCN5CCOCC5)c4cc23)CC1`, in assay [2], the inhibition entry is “inactive”.
Regarding `O=c1oc2cc3ncnc(Nc4ccc(F)c(Cl)c4)c3cc2n1CCCN1CCOCC1`, the IC50 came to 0.078 µM in assay [1], 6.5 µM in the assay on KB and 32 µM in the assay on A498.
As for `Cc1ccc(Nc2ncnc3cc4oc(=O)n(CCCN5CCOCC5)c4cc23)cc1`, the IC50 is 0.067 µM in assay [1] and 7.5 µM in assay [3].
The molecule `Cc1cc(C)cc(Nc2ncnc3cc4oc(=O)n(CCCN5CCOCC5)c4cc23)c1` came in with an IC50 in assay [1] of 75 µM. That is a double-digit micromolar value.
Take `CCOC(=O)c1ccc(O)c(Nc2ncnc3cc4oc(=O)n(CCCN5CCOCC5)c4cc23)c1`: the IC50 turned out to be 0.23 µM in assay [1], 8.1 µM with KB and 15.7 µM with A498.
`O=c1oc2cc3ncnc(Nc4ccc(Cl)cc4)c3cc2n1CCCN1CCOCC1`: the inhibition result in assay [2] was “inactive”.
`CC(C)Oc1cccc(Nc2ncnc3cc4oc(=O)n(CCCN5CCOCC5)c4cc23)c1` registered an IC50 in assay [1] of 3 µM.
Regarding `O=c1oc2cc3ncnc(Nc4ccc5[nH]ncc5c4)c3cc2n1CCCN1CCOCC1`, the IC50 in assay [1] was found to be 0.12 µM; with KB it was 18.5 µM; with A498 it was 18.7 µM.
With `O=c1oc2cc3ncnc(N[C@H]4CC[C@H](O)CC4)c3cc2n1CCCN1CCOCC1`, the inhibition entry in assay [2] is “inactive”.
As to `Cc1c(OCC(F)(F)F)ccnc1COc1ccc(Nc2ncnc3cc4oc(=O)n(CCCN5CCOCC5)c4cc23)cc1`, the IC50 in assay [1] was determined as 7.8 µM.
On to `C[C@H](Nc1ncnc2cc3oc(=O)n(CCCN4CCOCC4)c3cc12)c1ccccc1`, for which it took 3.7 µM to reach half-maximal inhibition in assay [1] (IC50).
With `O=c1oc2cc3ncnc(Nc4ccc(F)c(F)c4)c3cc2n1CCCN1CCOCC1`, half-maximal inhibition in assay [1] (IC50) required 0.57 µM.
Consider `C[C@@H](Nc1ncnc2cc3oc(=O)n(CCCN4CCOCC4)c3cc12)c1ccccc1`, for which, in assay [1], the IC50 worked out at 4.5 µM.
`O=c1oc2cc3ncnc(NCc4ccccc4)c3cc2n1CCCN1CCOCC1` had an IC50 in assay [1] of 65 µM.
Regarding `O=c1oc2cc3ncnc(Nc4ccc(OCc5ccc(Cl)cc5)c(Cl)c4)c3cc2n1CCCN1CCOCC1`, the IC50 in assay [1] came out at 0.061 µM; in the assay with KB, 0.82 µM; with A498 it was 3 µM.
`O=c1oc2cc3ncnc(Nc4ccc(OCc5ccccc5)cc4)c3cc2n1CCCN1CCOCC1`: the half-inhibitory concentration (IC50) in assay [1] was 0.14 µM; with KB it was 37.6 µM; in the assay on A498, 14.8 µM.
Take `CCOC(=O)c1ccc(Nc2ncnc3cc4oc(=O)n(CCCN5CCOCC5)c4cc23)cc1`: the IC50 in assay [1] is 5.8 µM; in assay [3], 3.1 µM; in the assay with KB it was 6 µM; in the assay on A498, 8.8 µM.
`O=c1oc2cc3ncnc(Nc4ccccc4O)c3cc2n1CCCN1CCOCC1` had an IC50 in assay [1] of 30 µM.
Regarding `CN(c1ccccc1)c1ncnc2cc3oc(=O)n(CCCN4CCOCC4)c3cc12`, the IC50 in assay [1] came to 7.2 µM.
On to `CC(C)(C)c1ccc(Nc2ncnc3cc4oc(=O)n(CCCN5CCOCC5)c4cc23)cc1`, for which the IC50 in assay [1] was determined as 79 µM.
Consider `CC(=O)Nc1ccc(Nc2ncnc3cc4oc(=O)n(CCCN5CCOCC5)c4cc23)cc1`, for which the inhibition result in assay [2] was “inactive”.
With `O=c1oc2cc3ncnc(Nc4ccc(OCc5ccc(Cl)cc5)cc4)c3cc2n1CCCN1CCOCC1`, the IC50 in assay [1] is 0.99 µM; with KB, 37.1 µM; with A498, 7.4 µM.
As for `O=c1oc2cc3ncnc(Nc4ccc(O)cc4)c3cc2n1CCCN1CCOCC1`, in assay [2], the inhibition entry is “inactive”. Also, in assay [3], the 50% inhibitory concentration (IC50) came to 66 µM.
`Cc1ccccc1Nc1ncnc2cc3oc(=O)n(CCCN4CCOCC4)c3cc12`: in assay [2], the inhibition result was “inactive”.
As to `C#Cc1cccc(Nc2ncnc3cc4oc(=O)n(CCCN5CCOCC5)c4cc23)c1`, the IC50 in assay [1] was 0.38 µM.
On to `CC(=O)c1cccc(Nc2ncnc3cc4oc(=O)n(CCCN5CCOCC5)c4cc23)c1`, for which the IC50 in assay [1] worked out at 6.8 µM.
Regarding `COc1ccc(Nc2ncnc3cc4oc(=O)n(CCCN5CCOCC5)c4cc23)cc1OC`, in assay [2], the inhibition result was “inactive”.
`COc1ccc(Nc2ncnc3cc4oc(=O)n(CCCN5CCOCC5)c4cc23)cc1` gave an IC50 in assay [1] of 0.38 µM.
Consider `NS(=O)(=O)c1ccc(Nc2ncnc3cc4oc(=O)n(CCCN5CCOCC5)c4cc23)cc1`, for which, in assay [2], the inhibition result was “inactive”.
On to `O=C(OCc1ccc(Cl)cc1)c1ccc(Nc2ncnc3cc4oc(=O)n(CCCN5CCOCC5)c4cc23)cc1`, for which the inhibition entry in assay [2] was “inactive”.
Regarding `CN(C)S(=O)(=O)c1ccc2c(c1)/C(=C/c1cc3c([nH]1)CCCC3)C(=O)N2`, the half-maximal inhibitory concentration (IC50) in assay [3] was found to be 0.073 µM.
Consider `Cc1c(OCC(F)(F)F)ccnc1COc1cccc(Nc2ncnc3cc4oc(=O)n(CCCN5CCOCC5)c4cc23)c1`, for which the results for the IC50 (in assay [1]; in the assay with KB; with A498) were 0.099 µM, 16 µM and 35.3 µM, respectively.

(Values after ChEMBL document CHEMBL2062376, “Novel oxazolo[4,5-g]quinazolin-2(1H)-ones: dual inhibitors of EGFR and Src protein tyrosine kinases” (Eur J Med Chem, 2012).)
